Assay results: US5185330A, “Penam derivatives and salts thereof, and antibacterial agent comprising the same” (Toyama Chemical Co., Ltd., priority 1989, dated 1993)
In brackets after ≈: the same amount, converted by molar mass. Where two headings read alike, the source gives them in different places.

Experiments:
E. coli TK-3 = assay: Antibacterial activity (MIC, agar dilution) against E. coli TK-3*; assay type: cell-based; conditions: Escherichia coli
Description: (§1) According to Chemotherapy, vol. 29, No. 1, pp. 76-79 (1981), bacterium was cultured in peptone broth manufactured by Eiken Kagaku K.K. at 37° C. for 20 hours to prepare a bacterial solution of 10^8 cells/ml, and one loopful of the bacterial solution was inoculated into Heart Infusion agar medium (manufactured by Eiken Kagaku K.K.) containing a drug, cultured at 37° C. for 20 hours, after which growth of bacterium was observed. The minimum concentration at which the growth of bacterium was prevented was indicated as MIC (μg/ml).
(§2) *means that β-lactamaseproducing bacteria.

S. marcescens W-8 = assay: Antibacterial activity (MIC, agar dilution) against S. marcescens W-8*; assay type: cell-based; conditions: Serratia marcescens
Description: as §1, §2

[1] = TK3, E. coli TK-3* (β-lactamase-producing bacteria), Heart Infusion agar, 37° C., 20 hours, one loopful of 10^8 cells/ml, read-out: MIC
[2] = W8, S. marcescens W-8* (β-lactamase-producing bacteria), Heart Infusion agar, 37° C., 20 hours, one loopful of 10^8 cells/ml, read-out: MIC

MIC (E. coli TK-3; [1])	MIC (S. marcescens W-8; [2])	SMILES	MIC (S. marcescens W-8; W8, 20 h)	MIC (E. coli TK-3; TK3, 20 h)
25 µg/mL (≈ 47.7 µM)	12.5 µg/mL (≈ 23.8 µM)	NC(=O)NN1CCN([C@]2(C(=O)O)CN3C(=O)[C@@H](NC(=O)C(C(=O)O)c4ccc(O)c(O)c4)[C@H]3S2)C1=O (some centres unmarked) [compound 24]	–	–
6.25 µg/mL (≈ 11.2 µM)	12.5 µg/mL (≈ 22.4 µM)	NC(=O)NN1CCN([C@]2(C(=O)O)CN3C(=O)[C@@H](NC(=O)C(C(=O)O)c4cc(O)c(O)cc4Cl)[C@H]3S2)C1=O (some centres unmarked) [compound 25]	–	–
1.56 µg/mL (≈ 2.22 µM)	–	CC(=O)Oc1ccc(C(C(=O)N[C@@H]2C(=O)N3C[C@@](C(=O)O)(N4CCN(N=C5SCCS5)C4=O)S[C@H]23)S(=O)(=O)O)cc1OC(C)=O (some centres unmarked) [compound 27]	–	–
6.25 µg/mL (≈ 10.7 µM)	3.13 µg/mL (≈ 5.34 µM)	CC(=O)Oc1ccc(C(C(=O)N[C@@H]2C(=O)N3C[C@@](C(=O)O)(N4CCN(NC(N)=O)C4=O)S[C@H]23)S(=O)(=O)O)cc1 (some centres unmarked) [compound 29]	–	–
6.25 µg/mL (≈ 11.5 µM)	1.56 µg/mL (≈ 2.87 µM)	NC(=O)NN1CCN([C@]2(C(=O)O)CN3C(=O)[C@@H](NC(=O)C(c4ccc(N)cc4)S(=O)(=O)O)[C@H]3S2)C1=O (some centres unmarked) [compound 30]	–	–
0.2 µg/mL (≈ 0.39 µM)	0.1 µg/mL (≈ 0.195 µM)	N#CC=CC=NN1CCN([C@]2(C(=O)O)CN3C(=O)[C@@H](NC(=O)C(C(=O)O)c4ccccc4)[C@H]3S2)C1=O (some centres unmarked) [compound 31]	–	–
1.56 µg/mL (≈ 3.09 µM)	0.78 µg/mL (≈ 1.55 µM)	NC(=O)C=NN1CCN([C@]2(C(=O)O)CN3C(=O)[C@@H](NC(=O)C(C(=O)O)c4ccccc4)[C@H]3S2)C1=O (some centres unmarked) [compound 32]	–	–
0.39 µg/mL (≈ 0.735 µM)	0.2 µg/mL (≈ 0.377 µM)	NC(=O)C=CC=NN1CCN([C@]2(C(=O)O)CN3C(=O)[C@@H](NC(=O)C(C(=O)O)c4ccccc4)[C@H]3S2)C1=O (some centres unmarked) [compound 33]	–	–
12.5 µg/mL (≈ 20.1 µM)	1.56 µg/mL (≈ 2.51 µM)	NC(=O)Nc1ccc([C@H](C(=O)N[C@@H]2C(=O)N3C[C@@](C(=O)O)(N4CCN(NC(N)=O)C4=O)S[C@H]23)S(=O)(=O)O)c(Cl)c1 [compound 36]	–	–
–	–	NC(=O)NN1CCN([C@]2(C(=O)O)CN3C(=O)[C@@H](NC(=O)[C@@H](c4ccc(O)c(F)c4)S(=O)(=O)O)[C@H]3S2)C1=O [compound 39]	0.78 µg/mL (≈ 1.39 µM)	3.13 µg/mL (≈ 5.56 µM)
–	–	NC(=O)NN1CCN([C@]2(C(=O)O)CN3C(=O)[C@@H](NC(=O)[C@@H](c4ccc(O)cc4)S(=O)(=O)O)[C@H]3S2)C1=O [compound 40]	0.78 µg/mL (≈ 1.43 µM)	3.13 µg/mL (≈ 5.75 µM)
0.2 µg/mL (≈ 0.308 µM)	0.2 µg/mL (≈ 0.308 µM)	NC(=O)NN=CC=NN1CCN([C@]2(C(=O)O)CN3C(=O)[C@@H](NC(=O)[C@@H](c4cc(O)c(O)cc4Cl)S(=O)(=O)O)[C@H]3S2)C1=O [compound 43]	–	–
6.25 µg/mL (≈ 11.5 µM)	6.25 µg/mL (≈ 11.5 µM)	NS(=O)(=O)NN1CCN([C@]2(C(=O)O)CN3C(=O)[C@@H](NC(=O)C(C(=O)O)c4ccc(O)cc4)[C@H]3S2)C1=O (some centres unmarked) [compound 44]	–	–
–	–	C=CC(=O)NN1CCN([C@]2(C(=O)O)CN3C(=O)[C@@H](NC(=O)C(C(=O)O)c4ccc(O)cc4)[C@H]3S2)C1=O (some centres unmarked) [compound 45]	3.13 µg/mL (≈ 6.03 µM)	3.13 µg/mL (≈ 6.03 µM)
12.5 µg/mL (≈ 23 µM)	6.25 µg/mL (≈ 11.5 µM)	Cn1cc(C=NN2CCN([C@]3(C(=O)O)CN4C(=O)[C@@H](NC(=O)C(C(=O)O)c5ccccc5)[C@H]4S3)C2=O)nn1 (some centres unmarked) [compound 46]	–	–

SMILES	MIC (E. coli TK-3; [1])	MIC (S. marcescens W-8; [2])	MIC (S. marcescens W-8; W8, 20 h)	MIC (E. coli TK-3; TK3, 20 h)
O=C(N[C@@H]1C(=O)N2C[C@@](C(=O)O)(N3CCN(N=C4SCCS4)C3=O)S[C@H]12)C(c1ccccc1)S(=O)(=O)O (some centres unmarked) [compound 26]	≤ 0.1 µg/mL	–	0.39 µg/mL (≈ 0.664 µM)	–
CC(=O)Oc1ccc(C(C(=O)N[C@@H]2C(=O)N3C[C@@](C(=O)O)(N4CCN(NC(N)=O)C4=O)S[C@H]23)S(=O)(=O)O)cc1OC(C)=O (some centres unmarked) [compound 28]	6.25 µg/mL (≈ 9.7 µM)	–	3.13 µg/mL (≈ 4.86 µM)	–
CC(=O)Oc1cc(Cl)c([C@H](C(=O)N[C@@H]2C(=O)N3C[C@@](C(=O)O)(N4CCN(N=CC=NNC(N)=O)C4=O)S[C@H]23)S(=O)(=O)O)cc1OC(C)=O [compound 34]	0.2 µg/mL (≈ 0.273 µM)	–	0.39 µg/mL (≈ 0.532 µM)	–
NC(=O)NN1CCN([C@]2(C(=O)O)CN3C(=O)[C@@H](NC(=O)[C@@H](c4ccc(N)cc4Cl)S(=O)(=O)O)[C@H]3S2)C1=O [compound 35]	1.56 µg/mL (≈ 2.7 µM)	–	0.78 µg/mL (≈ 1.35 µM)	–
NC(=O)NN1CCN([C@]2(C(=O)O)CN3C(=O)[C@@H](NC(=O)[C@@H](c4ccc(O)cc4Cl)S(=O)(=O)O)[C@H]3S2)C1=O [compound 37]	–	0.2 µg/mL (≈ 0.345 µM)	–	0.78 µg/mL (≈ 1.35 µM)
NC(=O)NN1CCN([C@]2(C(=O)O)CN3C(=O)[C@@H](NC(=O)[C@@H](c4ccc(O)cc4F)S(=O)(=O)O)[C@H]3S2)C1=O [compound 38]	1.56 µg/mL (≈ 2.77 µM)	–	0.78 µg/mL (≈ 1.39 µM)	–
NC(=O)NN1CCN([C@]2(C(=O)O)CN3C(=O)[C@@H](NC(=O)[C@@H](c4ccc(O)c(O)c4)S(=O)(=O)O)[C@H]3S2)C1=O [compound 41]	–	1.56 µg/mL (≈ 2.78 µM)	–	3.13 µg/mL (≈ 5.58 µM)
NC(=O)NN1CCN([C@]2(C(=O)O)CN3C(=O)[C@@H](NC(=O)[C@@H](c4cc(O)c(O)cc4Cl)S(=O)(=O)O)[C@H]3S2)C1=O [compound 42]	0.2 µg/mL (≈ 0.336 µM)	–	0.39 µg/mL (≈ 0.655 µM)	–
CON=C(C(=O)N[C@@H]1C(=O)N2C[C@@](C(=O)O)(N3CCN(N=C4SCCS4)C3=O)S[C@H]12)c1csc(N)n1 [compound 47]	–	6.25 µg/mL (≈ 10.9 µM)	–	0.78 µg/mL (≈ 1.36 µM)
